Results published in the supplement of paper PMC10307832.

Assays:
Experiment in all cases: relative viability (nuclei count vs DMSO), 5 days (fraction); higher = more cells survive
[1] = compound: CS(=O)(=O)N1CCN(Cc2cc3nc(-c4cccc5[nH]ncc45)nc(N4CCOCC4)c3s2)CC1 [Pictilisib] + NC(=O)Nc1cc(-c2cccc(F)c2)sc1C(=O)N[C@H]1CCCNC1 [AZD7762] (partner 0.2 µM)
How it was run: (§1)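 The day after seeding in 1536-well plates, lung cancer cell lines were treated by pin tool with a single drug, or with a fixed anchor-drug dose together with five library-drug doses (not always all listed) in √10 steps. After 5 days, a combined fix-and-stain solution (final 0.05% Triton X-100, 1% formaldehyde, 1 ug/ml Hoechst) was added. Nuclei counted on 4× images gave relative viability as treated counts over vehicle counts, reported as the median of duplicate plates.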

[2] = compound: CS(=O)(=O)N1CCN(Cc2cc3nc(-c4cccc5[nH]ncc45)nc(N4CCOCC4)c3s2)CC1 [Pictilisib] + COc1cc2c(Oc3ccc(NC(=O)C4(C(=O)Nc5ccc(F)cc5)CC4)cc3F)ccnc2cc1OCCCN1CCOCC1 [Foretinib] (partner 0.25 µM)
How it was run: as §1

[3] = compound: NC1(c2ccc(-c3nc4ccn5c(=O)[nH]nc5c4cc3-c3ccccc3)cc2)CCC1 [MK-2206] + CS(=O)(=O)N1CCN(Cc2cc3nc(-c4cccc5[nH]ncc45)nc(N4CCOCC4)c3s2)CC1 [Pictilisib] (partner 1 µM)
How it was run: as §1

[4] = compound: NC1(c2ccc(-c3nc4ccn5c(=O)[nH]nc5c4cc3-c3ccccc3)cc2)CCC1 [MK-2206] + N=C(N)NC(=N)NCCc1ccccc1 [Phenformin] (partner 250 µM)
How it was run: as §1

Row | Cell Line | relative viability ([1]; first compound 0.02 µM) | relative viability ([1]; first compound 0.06325 µM) | relative viability ([1]; first compound 0.6325 µM) | relative viability ([1]; first compound 2 µM) | relative viability ([2]; first compound 0.02 µM) | relative viability ([2]; first compound 0.06325 µM) | relative viability ([2]; first compound 0.6325 µM) | relative viability ([2]; first compound 2 µM) | relative viability ([3]; first compound 0.01 µM) | relative viability ([3]; first compound 0.03162 µM) | relative viability ([3]; first compound 0.3162 µM) | relative viability ([3]; first compound 1 µM) | relative viability ([4]; first compound 0.01 µM) | relative viability ([4]; first compound 0.03162 µM) | relative viability ([4]; first compound 0.3162 µM) | relative viability ([4]; first compound 1 µM)
1 | NCI-H1437 | 1.13 | 1.07 | 1.09 | 0.903 | 1.23 | 1.29 | 1.36 | 0.96 | 0.472 | 0.399 | 0.366 | 0.263 | 0.297 | 0.265 | 0.306 | 0.301
2 | NCI-H1651 | 0.445 | 0.423 | 0.444 | 0.263 | 0.764 | 0.609 | 0.678 | 0.572 | 0.672 | 0.655 | 0.632 | 0.408 | 0.362 | 0.302 | 0.336 | 0.365
3 | NCI-H1666 | 0.814 | 0.763 | 0.804 | 0.532 | 0.987 | 0.968 | 0.914 | 0.66 | 0.403 | 0.414 | 0.405 | 0.403 | 0.586 | 0.595 | 0.568 | 0.563
4 | NCI-H1734 | 0.559 | 0.537 | 0.357 | 0.192 | 0.918 | 0.641 | 0.579 | 0.35 | 0.475 | 0.463 | 0.329 | 0.393 | 0.355 | 0.458 | 0.304 | 0.338
5 | NCI-H1755 | 0.452 | 0.387 | 0.354 | 0.298 | 0.901 | 0.883 | 0.778 | 0.58 | 0.47 | 0.48 | 0.36 | 0.4 | 0.68 | 0.632 | 0.551 | 0.587
6 | NCI-H1793 | 0.449 | 0.404 | 0.226 | 0.142 | 0.563 | 0.448 | 0.415 | 0.21 | 0.323 | 0.31 | 0.307 | 0.284 | 0.386 | 0.47 | 0.206 | 0.218
7 | NCI-H1915 | 0.681 | 0.716 | 0.579 | 0.525 | 1.07 | 1.12 | 1.1 | 1.02 | 0.866 | 1.1 | 0.88 | 0.947 | 0.351 | 0.384 | 0.379 | 0.367
8 | NCI-H1944 | 0.555 | 0.477 | 0.319 | 0.236 | 0.866 | 0.737 | 0.627 | 0.382 | 0.361 | 0.346 | 0.361 | 0.34 | 0.197 | 0.217 | 0.169 | 0.185
9 | NCI-H1975 | 0.816 | 0.62 | 0.466 | 0.225 | 0.834 | 0.902 | 0.603 | 0.25 | 0.267 | 0.259 | 0.24 | 0.232 | 0.428 | 0.402 | 0.312 | 0.326
10 | NCI-H1993 | 0.79 | 0.722 | 0.459 | 0.442 | 0.678 | 0.613 | 0.69 | 0.599 | 0.85 | 0.742 | 0.742 | 0.86 | 0.496 | 0.491 | 0.562 | 0.568
